Here are results for four compounds from patent publication US4425350A, “5,6,6a,7-Tetrahydro-4H-dibenz(de,g)-isoquinoline derivatives, and their use for treating central nervous system disorders” (Warner-Lambert Company, priority 1980, dated 1984).

Structures are written as SMILES.

The nature of data set [1]: Acute toxicity (LD50), intragastral administration, male mice. The conditions noted are these: mouse, in vivo, po.
The test system of another data set is rats. The data set is described as follows: Behavioural test in rats, modified after Irwin. Type of data set: in vivo. The source says: 2. Behavioural test in rats, modified after Irwin, Psychopharmacologica. (Berl.); 13, pgs. 222-257 (1968).
Data set [2] in a line: Prolongation of evipan sodium narcosis. The class given is in vivo. From the text: 3. Prolongation of evipan sodium narcosis, Arch. Int. Pharmacodyn; 126, pgs. 219-227 (1960).
Another data set relates to dogs. Put plainly: Alphalysis (alphalytic activity) in dogs. The class given is in vivo. Conditions: for alphalytic activity: from 1 mg./kg. i.v. Here is the method:
4. Alphalysis, Medizinische Wochenschrift; 81, pg. 352 (1951).
The alphalytic activity of the compounds of Examples 8 and 9 was tested on dogs.

On to `COc1cc2c(cc1OC)-c1c(OC)c(OC)cc3c1C(CNC3)C2` (racemic) [Example 7, (±)-5,6,6a,7-Tetrahydro-1,2,9,10-tetramethoxy-4H-dibenz(de,g)isoquinolin], for which, in data set [1], the median lethal dose (LD50) (usually the dose expected to kill half of the subjects tested) is around 600 mg/kg. In the data set with rats (150 mg./kg.), the catatonia entry is “catatonia”, the “lowering of the body temperature” value was “lowering of the body temperature”, the ptosis result is on record as “ptosis” and the sedation entry is on record as “sedation”. For the same compound, in data set [2] (dosage 50 mg./kg.), the “prolongation of the sleeping time in %” value is 147%. Further, the “prolongation of the sleeping time in %” value in data set [2] (dosage 100 mg./kg.) came out at 324%.

`COc1cc2c(cc1OC)-c1c(OC)c(OC)cc3c1C(C2)CN(C)C3` (racemic) [Example 8, (±)-5,6,6a,7-Tetrahydro-1,2,9,10-tetramethoxy-5-methyl-4H-dibenz(de,g)isoquinoline] displayed an LD50 in data set [1] of 800 mg/kg. In the data set on rats (300 mg./kg.), the catatonia entry is recorded as “catatonia”, the “lowering of the body temperature” value was “lowering”, the muscle tonus result was “reduced muscle tonus” and the ptosis entry is on record as “ptosis”. In the data set on rats (300 mg./kg.), the sedation result is on record as “sedation”. For the same compound, in data set [2] (dosage 50 mg./kg.), the “prolongation of the sleeping time in %” value was found to be 64%. Besides, in the data set with dogs, the alphalytic activity result was “a distinct alphalytic activity is detectable”. Also, the “alphalytic action after intraduodenal administration” value with dogs (intraduodenal) is reported as “the action could also be confirmed after intraduodenal administration”.

Compound `COc1cc2c3c(c1OC)CN(C)CC3Cc1cc3c(cc1-2)OCO3` (racemic) [Example 9, (±)-5,6,6a,7-tetrahydro-2,3-dimethoxy-9,10-methylenedioxy-5-methyl-4H-dibenz(de,g)isoquinoline] had a median lethal dose (LD50) in data set [1] of around 1200 mg/kg. In the data set on rats (150 mg./kg.), the catatonia result was “catatonia”, the “lowering of the body temperature” value is reported as “lowering” and the sedation entry is given as “sedation”. In addition, in the data set on rats (300 mg./kg., symptoms at 150 mg./kg.: sedation, catatonia, lowering of the body temperature), the “behaviour (change of symptoms versus 150 mg./kg.)” value is “strengthening of the symptoms”. In data set [2] (dosage 50 mg./kg.), the “prolongation of the sleeping time in %” value is 339%. For the same compound, in data set [2] (dosage 100 mg./kg.), the “prolongation of the sleeping time in %” value was 417%. Also, the alphalytic activity result in the data set on dogs is given as “a distinct alphalytic activity is detectable”.

In the case of `COc1cc2c(cc1OC)-c1cc(OC)c(OC)c3c1C(C2)CN(C)C3` (racemic) [Example 10, (±)-5,6,6a,7-Tetrahydro-2,3,9,10-tetramethoxy-5-methyl-4H-dibenz(de,g)isoquinoline], the LD50 in data set [1] is around 1200 mg/kg. In the data set with rats (150 mg./kg.), the catatonia entry is recorded as “catatonia”, the muscle tonus result was “reduced muscle tonus” and the sedation result is on record as “sedation”. Besides, the “prolongation of the sleeping time in %” value in data set [2] (dosage 50 mg./kg.) worked out at 268%. Besides, in data set [2] (dosage 100 mg./kg.), the “prolongation of the sleeping time in %” value was determined as 347%.
